Laboratory results as given in patent US20230233569A1 (Revolution Medicines, Inc., priority 2020, published 2023).
“And” between values parts separate entries of the source, which are not always exact repeats. Identical values can stand only once. Like-named read-outs stand apart in the source and are kept apart here.

What was measured:
[1] = system: K-Ras G12C (NCI-H358 cells); assay: Potency assay: pERK (AlphaLISA SureFire or In-Cell Western); type: cell-based; conditions: Homo sapiens, NCI-H358; H358 KRAS G12C; read-out: pERK EC50
How it was run: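 Cellular pERK decrease measured after 4 h compound exposure (37 °C, 5% CO2) of NCI-H358 cells, 10-point 3-fold series from 10 mM DMSO stock, duplicates. Detection either by In-Cell Western (IR-800CW secondary, DRAQ5 stain) or AlphaLISA SureFire Ultra p-ERK1/2; 4-parameter sigmoidal fit gave IC50.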

[2] = biological target: KRAS G12C (Homo sapiens, UniProt P01116+P62937, G12C); assay: Disruption of BRAF RBD interaction with Ras (FRET / MOA assay, with Cyclophilin A); type: biochemical
Chain of KRAS G12C (P01116 1-169 isoform P01116-2 G12C): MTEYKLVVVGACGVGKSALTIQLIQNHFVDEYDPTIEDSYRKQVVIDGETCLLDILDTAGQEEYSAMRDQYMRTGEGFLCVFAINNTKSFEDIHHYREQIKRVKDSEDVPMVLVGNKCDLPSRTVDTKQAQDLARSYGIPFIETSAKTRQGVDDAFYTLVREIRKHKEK
Chain of KRAS G12C (P62937 whole entry): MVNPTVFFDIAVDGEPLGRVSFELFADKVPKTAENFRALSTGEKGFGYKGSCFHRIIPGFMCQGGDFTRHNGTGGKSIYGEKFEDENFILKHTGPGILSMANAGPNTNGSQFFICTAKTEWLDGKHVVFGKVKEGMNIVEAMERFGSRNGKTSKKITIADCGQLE
How it was run: (§1)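 First, compounds at a ten-point threefold dilution series (highest final concentration 30 μM) were incubated with nucleotide-loaded K-Ras, Cyclophilin A and BRAF RBD for 3 h at 25 °C. Next, detection antibodies were added for 1.5 h. Finally, IC50 was calculated from TR-FRET ratio decreases against DMSO controls.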

[3] = biological target: KRAS G12D (Homo sapiens, UniProt P01116+P62937, G12D); assay: as above; type: biochemical
Chain of KRAS G12D (P01116 1-169 isoform P01116-2 G12D limits assumed): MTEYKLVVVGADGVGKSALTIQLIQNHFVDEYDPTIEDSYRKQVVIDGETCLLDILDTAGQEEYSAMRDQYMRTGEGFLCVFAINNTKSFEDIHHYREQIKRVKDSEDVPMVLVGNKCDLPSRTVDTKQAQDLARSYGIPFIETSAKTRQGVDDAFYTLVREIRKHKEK
Chain of KRAS G12D (P62937 whole entry): as the sequence (P62937 whole entry) above
How it was run: as §1

[4] = biological target: KRAS G12S (Homo sapiens, UniProt P01116+P62937, G12S); assay: as above; type: biochemical
Chain of KRAS G12S (P01116 1-169 isoform P01116-2 G12S limits assumed): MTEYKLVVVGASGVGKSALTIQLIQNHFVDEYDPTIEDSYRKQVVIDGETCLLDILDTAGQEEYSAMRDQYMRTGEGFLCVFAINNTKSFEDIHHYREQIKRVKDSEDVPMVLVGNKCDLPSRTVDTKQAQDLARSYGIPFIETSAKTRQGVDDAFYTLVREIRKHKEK
Chain of KRAS G12S (P62937 whole entry): as the sequence (P62937 whole entry) above
How it was run: as §1

[5] = biological target: KRAS G12V (Homo sapiens, UniProt P01116+P62937, G12V); assay: as above; type: biochemical
Chain of KRAS G12V (P01116 1-169 isoform P01116-2 G12V limits assumed): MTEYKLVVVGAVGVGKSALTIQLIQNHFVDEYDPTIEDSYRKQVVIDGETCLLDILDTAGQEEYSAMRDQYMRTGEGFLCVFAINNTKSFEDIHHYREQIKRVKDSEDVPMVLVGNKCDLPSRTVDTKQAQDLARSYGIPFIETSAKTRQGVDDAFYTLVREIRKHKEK
Chain of KRAS G12V (P62937 whole entry): as the sequence (P62937 whole entry) above
How it was run: as §1

[6] = biological target: KRAS G13C (Homo sapiens, UniProt P01116+P62937, G13C); assay: as above; type: biochemical
Chain of KRAS G13C (P01116 1-169 isoform P01116-2 G13C): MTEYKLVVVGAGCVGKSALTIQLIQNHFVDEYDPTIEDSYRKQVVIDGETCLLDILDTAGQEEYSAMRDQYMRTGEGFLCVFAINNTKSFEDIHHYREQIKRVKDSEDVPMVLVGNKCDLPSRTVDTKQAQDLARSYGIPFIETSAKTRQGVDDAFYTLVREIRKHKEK
Chain of KRAS G13C (P62937 whole entry): as the sequence (P62937 whole entry) above
How it was run: as §1

[7] = biological target: KRAS G13D (Homo sapiens, UniProt P01116+P62937, G13D); assay: as above; type: biochemical
Chain of KRAS G13D (P01116 1-169 isoform P01116-2 G13D limits assumed): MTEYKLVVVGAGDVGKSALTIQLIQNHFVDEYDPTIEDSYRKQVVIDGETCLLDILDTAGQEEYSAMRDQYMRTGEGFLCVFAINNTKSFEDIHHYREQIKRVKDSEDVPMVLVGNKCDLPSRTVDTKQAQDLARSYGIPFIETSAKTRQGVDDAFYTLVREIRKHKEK
Chain of KRAS G13D (P62937 whole entry): as the sequence (P62937 whole entry) above
How it was run: as §1

[8] = biological target: KRAS WT (Homo sapiens, UniProt P01116+P62937); assay: as above; type: biochemical
Chain of KRAS WT (P01116 1-169 isoform P01116-2 limits assumed): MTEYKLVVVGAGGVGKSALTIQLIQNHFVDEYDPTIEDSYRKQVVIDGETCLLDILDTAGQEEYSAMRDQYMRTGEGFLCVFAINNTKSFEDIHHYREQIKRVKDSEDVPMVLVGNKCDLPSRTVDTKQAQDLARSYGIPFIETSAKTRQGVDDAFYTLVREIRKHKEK
Chain of KRAS WT (P62937 whole entry): as the sequence (P62937 whole entry) above
How it was run: as §1

[9] = biological target: NRAS G12C (Homo sapiens, UniProt P01111+P62937, G12C); assay: as above; type: biochemical
Chain of NRAS G12C (P01111 whole entry G12C): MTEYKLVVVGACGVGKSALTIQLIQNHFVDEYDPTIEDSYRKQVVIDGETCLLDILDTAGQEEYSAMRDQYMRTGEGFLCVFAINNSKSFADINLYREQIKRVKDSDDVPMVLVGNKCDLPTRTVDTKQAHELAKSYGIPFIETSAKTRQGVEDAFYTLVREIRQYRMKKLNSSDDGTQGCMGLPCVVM
Chain of NRAS G12C (P62937 whole entry): as the sequence (P62937 whole entry) above

[10] = KRAS G12C, read-out: KRAS G12C FRET data IC50
[11] = read-out: KRAS G12D FRET data, IC50
[12] = read-out: KRAS G12S FRET data, IC50
[13] = KRAS G12V, read-out: KRAS G12V FRET data IC50
[14] = KRAS G13C, read-out: KRAS G13C FRET data IC50
[15] = KRAS G13D, read-out: KRAS G13D FRET data IC50
[16] = KRAS WT, read-out: KRAS WT FRET data IC50
[17] = NRAS G12C, read-out: NRAS G12C FRET data IC50
[18] = KRAS G12C FRET data IC50, KRAS G12C
[19] = KRAS G12V FRET data IC50, KRAS G12V
[20] = KRAS G13D FRET data IC50, KRAS G13D
[21] = KRAS WT FRET data IC50, KRAS WT
[22] = NRAS G12C FRET data IC50, NRAS G12C

Row | Compound | EC50 [1] [µM] | IC50 [2, 10] [µM] | IC50 [3, 11] | IC50 [4, 12] [µM] | IC50 [5, 13] [µM] | IC50 [6, 14] | IC50 [7, 15] [µM] | IC50 [8, 16] [µM] | IC50 [9, 17] [µM] | IC50 [2, 18] | IC50 ([4]; KRAS G12S FRET data, IC50) [µM] | IC50 [5, 19] [µM] | IC50 [7, 20] | IC50 [8, 21] [µM] | IC50 [9, 22] | IC50 ([3]; KRAS G12D FRET data, IC50) [µM] | IC50 ([6]; KRAS G13C FRET data IC50, KRAS G13C) [µM]
1 | C=CS(=O)(=O)N1CC[C@H](C(=O)N(C)[C@H](C(=O)N[C@H]2Cc3nc(cs3)-c3ccc4c(c3)c(c(-c3cncnc3)n4CC)CC(C)(C)COC(=O)[C@@H]3CCCN(N3)C2=O)C(C)C)C1 [Example A170] | < 5 | 1 to 10 | > 10 µM | > 10 | > 10 | 1 to 10 µM | > 10 | > 10 | 1 to 10 | – | – | – | – | – | – | – | –
2 | C=CC(=O)N1CC[C@@]2(CCN2C(=O)N(C)[C@H](C(=O)N[C@H]2Cc3nc(cs3)-c3ccc4c(c3)c(c(-c3cccnc3[C@H](C)OC)n4CC)CC(C)(C)COC(=O)C3CCCN(N3)C2=O)N(C)C)C1 (single isomer, unassigned) [Example A661] | < 5 | 0.01 to 0.1 | 1 to 10 µM | 0.1 to 1 | 1 to 10 | 0.1 to 1 µM | 0.1 to 1 | 0.1 to 1 | 0.01 to 0.1 | – | – | – | – | – | – | – | –
3 | C=CC(=O)N1CC[C@H](C(=O)N(C)[C@H](C(=O)N[C@H]2Cc3cc(O)cc(c3)-c3ccc4c(c3)c(c(-c3cc(C)cnc3[C@H](C)OC)n4CC)CC(C)(C)COC(=O)[C@@H]3CCCN(N3)C2=O)C(C)C)C1 [Example A167] | < 5 | – | > 10 µM and 0.1 to 1 µM | 1 to 10 | 1 to 10 | 1 to 10 µM and 0.01 to 0.1 µM | – | 1 to 10 | – | 0.1 to 1 µM and < 0.01 µM | 0.01 to 0.1 | 0.01 to 0.1 | 0.1 to 1 µM and > 10 µM | 0.01 to 0.1 | 0.1 to 1 µM and < 0.01 µM | – | –
4 | C=CC(=O)N1CC[C@@H](N(C)C(=O)N(C)[C@H](C(=O)N[C@H]2Cc3nc(cs3)-c3ccc4c(c3)c(c(-c3cccnc3[C@H](C)OC)n4CC)CC(C)(C)COC(=O)[C@@H]3CCCN(N3)C2=O)C(C)C)C1 [Example A349] | < 5 | 0.01 to 0.1 | 0.1 to 1 µM | 0.1 to 1 | 0.1 to 1 | 0.1 to 1 µM | 0.1 to 1 | 0.1 to 1 | 0.01 to 0.1 | – | – | – | – | – | – | – | –
5 | C=CC(=O)N1CCO[C@@]2(CCN(C(=O)N(C)[C@H](C(=O)N[C@H]3Cc4nc(cs4)-c4ccc5c(c4)c(c(-c4cccnc4[C@H](C)OC)n5CC(F)(F)F)CC(C)(C)COC(=O)C4CCCN(N4)C3=O)C(C)C)C2)C1 (stereo partly drawn) [Example A594] | < 5 | – | – | – | – | – | – | – | – | 0.01 to 0.1 µM | 0.1 to 1 | 0.1 to 1 | 0.1 to 1 µM | 0.01 to 0.1 | 0.01 to 0.1 µM | 0.1 to 1 | 0.01 to 0.1
6 | CCn1c(-c2cccnc2[C@H](C)OC)c2c3cc(ccc31)-c1cccc(c1)C[C@H](NC(=O)[C@@H](CN1CC[C@]3(CCN(C(=O)C#C[C@H]4COCCN4C)C3)C1=O)C(C)C)C(=O)N1CCCC(N1)C(=O)OCC(C)(C)C2 (stereo partly drawn) [Example A592] | < 5 | 0.01 to 0.1 | > 10 µM | 1 to 10 | 1 to 10 | 1 to 10 µM | > 10 | > 10 | 0.01 to 0.1 | – | – | – | – | – | – | – | –
7 | CCn1c(-c2cccnc2[C@H](C)OC)c2c3cc(ccc31)-c1csc(n1)C[C@H](NC(=O)[C@H](COC1CN(C(=O)C#CC(C)(C)N(C)C)C1)OC)C(=O)N1CCC[C@H](N1)C(=O)OCC(C)(C)C2 (atropisomer, axis not shown) [Example A705] | < 5 | < 0.01 | > 10 µM | 1 to 10 | 1 to 10 | 1 to 10 µM | > 10 | 1 to 10 | < 0.01 | – | – | – | – | – | – | – | –
8 | CC#CC(=O)N1CC[C@H](C(=O)N(C)[C@H](C(=O)N[C@H]2Cc3nc(cs3)-c3ccc4c(c3)c(c(-c3cccnc3[C@H](C)OC)n4CC)CC(C)(C)COC(=O)[C@@H]3CCCN(N3)C2=O)C(C)C)C1 [Example A168] | < 5 | 0.1 to 1 | > 10 µM | 1 to 10 | 1 to 10 | 1 to 10 µM | > 10 | 1 to 10 | 1 to 10 | – | – | – | – | – | – | – | –
9 | CCn1c(-c2cccnc2[C@H](C)OC)c2c3cc(ccc31)N1CCO[C@@](C)(CC(NC(=O)[C@H](C(C)C)N(C)C(=O)C3(F)CCN(C(=O)C#CC(C)(C)N(C)C)CC3)C(=O)N3CCC[C@H](N3)C(=O)OCC(C)(C)C2)C1 (stereo partly drawn) [Example A550] | < 5 | < 0.01 | 1 to 10 µM | 1 to 10 | 0.1 to 1 | 0.1 to 1 µM | 1 to 10 | 0.1 to 1 | < 0.01 | – | – | – | – | – | – | – | –
10 | C=CC(=O)N1CCO[C@H]2CN(C(=O)N(C)[C@H](C(=O)N[C@H]3Cc4cccc(n4)-c4ccc5c(c4)c(c(-c4cccnc4[C@H](C)OC)n5CC(F)(F)F)CC(C)(C)COC(=O)C4CCCN(N4)C3=O)C(C)C)C[C@H]21 (stereo partly drawn) [Example A595] | < 5 | 0.01 to 0.1 | 1 to 10 µM | 1 to 10 | 1 to 10 | 0.01 to 0.1 µM | 1 to 10 | 0.1 to 1 | 0.01 to 0.1 | – | – | – | – | – | – | – | –
11 | C=CC(=O)N1CCOC2(CCN(C(=O)N(C)[C@H](C(=O)N[C@H]3Cc4cccc(c4)-c4ccc5c(c4)c(c(-c4cccnc4[C@H](C)OC)n5CC(F)(F)F)CC(C)(C)COC(=O)C4CCCN(N4)C3=O)C(C)C)CC2)C1 (stereo partly drawn) [Example A608] | < 5 | 0.1 to 1 | 0.1 to 1 µM | 0.1 to 1 | 0.1 to 1 | 0.01 to 0.1 µM | 0.1 to 1 | 0.1 to 1 | 0.1 to 1 | – | – | – | – | – | – | – | –
12 | C=CC(=O)N1CCO[C@H]2CN(C(=O)N(C)[C@H](C(=O)N[C@H]3CN4CCC=C(C4)c4ccc5c(c4)c(c(-c4cccnc4[C@H](C)OC)n5CC)CC(C)(C)COC(=O)[C@@H]4CCCN(N4)C3=O)C(C)C)C[C@H]21 [Example A552] | < 5 | 0.01 to 0.1 | 1 to 10 µM | 1 to 10 | 1 to 10 | 0.01 to 0.1 µM | 1 to 10 | 0.1 to 1 | 0.01 to 0.1 | – | – | – | – | – | – | – | –
13 | C=CC(=O)N1CCO[C@H]2CN(C(=O)N(C)[C@H](C(=O)N[C@H]3Cc4cccc(c4)-c4ccc5c(c4)c(c(-c4cccnc4[C@H](C)OC)n5CC)CC(C)(C)COC(=O)C4CCCN(N4)C3=O)C(C)C)C[C@H]21 (stereo partly drawn) [Example A610] | < 5 | 0.01 to 0.1 | 1 to 10 µM | 1 to 10 | 1 to 10 | 0.01 to 0.1 µM | 1 to 10 | 0.1 to 1 | 0.01 to 0.1 | – | – | – | – | – | – | – | –
14 | C=CC(=O)N1CC[C@@H](N(C)C(=O)N(C)[C@H](C(=O)N[C@H]2Cc3nc(cs3)-c3ccc4c(c3)c(c(-c3cccnc3[C@H](C)OC)n4CC(F)(F)F)CC(C)(C)COC(=O)[C@@H]3CCCN(N3)C2=O)C(C)C)C1 (atropisomer, axis not shown) [Example A728] | < 5 | 0.1 to 1 | 1 to 10 µM | 0.1 to 1 | 0.1 to 1 | 0.1 to 1 µM | 1 to 10 | 0.1 to 1 | 0.1 to 1 | – | – | – | – | – | – | – | –
